Consider 34 molecules from US20230416262A1, “TRPML MODULATORS” (Casma Therapeutics, Inc., priority 2020, published 2023).

One may read the EC50 as the concentration giving half of the maximal effect.

The subject of this experiment is TFEB. Description: TFEB nuclear translocation assay. The experiment is classed as cell-based. The note with it: Homo sapiens; HeLa wt or HeLa TRPML1 KO cells, treated for 2 hrs; ratio of nuclear to ring-region TFEB intensity. How it is done: For the TFEB nuclear translocation assay, HeLa wt or HeLa TRPML1 KO cells were plated at 2700 cells/well into black-walled, 384-well Cell carrier Ultra tissue culture treated plates in complete media and incubated overnight. The next day, cells are treated for 2 hrs with compounds and incubated at 37° C. Cells were then fixed for 30 minutes at room temperature in 4% final PFA and washed five times with 90 μL PBS. PBS is aspirated from the wells and the cells are blocked with 7.5 μL blocking buffer (1.1 PBS/Odyssey block buffer containing 0.1% triton x-100 and 1% goat serum). After 30-60 minutes of block, 7.5 μL of primary anti-TFEB (rabbit) antibody is added for a final dilution of 1:200 antibody in 15 μL blocking buffer. Plates are incubated overnight at 4° C. The following day, plates are washed again into PBS, 90 μL with 5 washes, all PBS is aspirated from the wells and the cells are incubated for 1 hr in 1:1000 goat-anti rabbit Alexa 488 secondary antibody, also containing 10 μg/mL Hoechst 33342. After the 1 hr RT incubation, plates are washed a final time into PBS, sealed with foil and imaged with an automated epifluorescence microscopy (PerkinElmer Operetta CLS). Four different fields were imaged per well using ×20 magnification for DAPI and FITC filter sets. Images were quantified using PerkinElmer Harmony software, briefly: apply flatfield correction (basic/advanced) for input images. Use the Find Nuclei building block with channel set at Hoechst to find the nuclei. Use the Find cytoplasm building block with channel set to Alexa 488 to find the cytoplasm. Use select cell region with Channel set at Alexa 488 and region of interest as Nuclei and define outer border at 0 μm and inner at 45 μm to cover complete nuclei. Use select cell region with Channel set at Alexa 488 and region of interest as ring region and define outer border at −5 μm and inner at 0 μm to define a ring around the nucleus. Use the find calculate intensity parameter to calculate intensity of the nuclear region and the ring region. Define results as Number of nuclei and ratio of A/B where A is Intensity of Nuclei and B is intensity of the ring region.
Take `O=S(=O)(Cc1ccccc1)N1CC2(CCCC2)c2ccccc21` [Compound I-1, 1′-phenylmethanesulfonyl-1′,2′-dihydrospiro[cyclopentane-1,3′-indole]]: the EC50 was in the range of 8.01 to 9.99 µM.

Turning to `CC(C)C(=O)c1ccc(S(=O)(=O)N2CC3(CCCC3)c3ccccc32)cc1` [Compound I-3, 1-[4-({1′,2′-dihydrospiro[cyclopentane-1,3′-indol]-1′-yl}sulfonyl)phenyl]-2-methylpropan-1-one], the EC50 is 2.01 to 8 µM.

In the case of `CC(C)c1ccc(S(=O)(=O)N2CC3(CCCC3)c3ccccc32)cc1` [Compound I-4, 1′-[4-(propan-2-yl)benzenesulfonyl]-1′,2′-dihydrospiro[cyclopentane-1,3′-indole]], the half-maximal effective concentration (EC50) was in the range of 8.01 to 9.99 µM. The result for `CN1Cc2cc(S(=O)(=O)N3CC4(CCCC4)c4ccccc43)ccc2OC1=O` [Compound I-6, 6-({1′,2′-dihydrospiro[cyclopentane-1,3′-indol]-1′-yl}sulfonyl)-3-methyl-3,4-dihydro-2H-1,3-benzoxazin-2-one] reads at least 10 µM. Then `COC(CS(=O)(=O)N1CC2(CCCC2)c2ccccc21)c1ccc(F)cc1` (stereo not shown) [Compound I-7, 1′-[2-(4-fluorophenyl)-2-methoxyethanesulfonyl]-1′,2′-dihydrospiro[cyclopentane-1,3′-indole]], with at least 10 µM. Then `COC1Cc2ccc(S(=O)(=O)N3CC4(CCCC4)c4ccccc43)cc2C1` (stereo not shown) [Compound I-8, 1′-[(2-methoxy-2,3-dihydro-1H-inden-5-yl)sulfonyl]-1′,2′-dihydrospiro[cyclopentane-1,3′-indole]], with at least 10 µM; and `CS(=O)(=O)c1ccc(S(=O)(=O)N2CC3(CCCC3)c3ccccc32)cc1` [Compound I-9, 1′-(4-methanesulfonylbenzenesulfonyl)-1′,2′-dihydrospiro[cyclopentane-1,3′-indole]], with 2.01 to 8 µM; and `CS(=O)(=O)c1ccc(S(=O)(=O)N2CC3(CCCC3)c3ccccc32)cc1F` [Compound I-10, 1′-(3-fluoro-4-methanesulfonylbenzenesulfonyl)-1′,2′-dihydrospiro[cyclopentane-1,3′-indole]], with 2.01 to 8 µM. Take `Cc1cc(S(=O)(=O)N2CC3(CCCC3)c3ccccc32)ccc1F` [Compound I-11, 1′-(4-fluoro-3-methylbenzenesulfonyl)-1′,2′-dihydrospiro[cyclopentane-1,3′-indole]]: the 50% effective concentration (EC50) was at least 10 µM. The result for `Cc1ccc(CS(=O)(=O)N2CC3(CCCC3)c3ccccc32)cc1` [Compound I-12, 1′-[(4-methylphenyl)methanesulfonyl]-1′,2′-dihydrospiro[cyclopentane-1,3′-indole]] reads at least 10 µM. The result for `Cc1ccc(S(=O)(=O)N2CC3(CCCC3)c3ccccc32)cc1` [Compound I-13, 1′-(4-methylbenzenesulfonyl)-1′,2′-dihydrospiro[cyclopentane-1,3′-indole]] reads at least 10 µM; that for `Cc1ccc(CS(=O)(=O)N2CC3(CCCC3)c3ccccc32)cc1C` [Compound I-14, 1′-[(3,4-dimethylphenyl)methanesulfonyl]-1′,2′-dihydrospiro[cyclopentane-1,3′-indole]], 2.01 to 8 µM.

With `Cc1ccc(S(=O)(=O)N2CC3(CCCC3)c3ccccc32)cc1F` [Compound I-15, 1′-(3-fluoro-4-methylbenzenesulfonyl)-1′,2′-dihydrospiro[cyclopentane-1,3′-indole]], the concentration for a half-maximal effect (EC50) was 8.01 to 9.99 µM. Then `Cc1cccc(CS(=O)(=O)N2CC3(CCCC3)c3ccccc32)c1` [Compound I-16, 1′-[(3-methylphenyl)methanesulfonyl]-1′,2′-dihydrospiro[cyclopentane-1,3′-indole]], with at least 10 µM; and `O=S(=O)(c1cnn(C2CCC2)c1)N1CC2(CCCC2)c2ccccc21` [Compound I-17, 1′-[(1-cyclobutyl-1H-pyrazol-4-yl)sulfonyl]-1′,2′-dihydrospiro[cyclopentane-1,3′-indole]], with at least 10 µM. The result for `O=S(=O)(c1cnn(C2CCCCC2)c1)N1CC2(CCCC2)c2ccccc21` [Compound I-18, 1′-[(1-cyclohexyl-1H-pyrazol-4-y1)sulfonyl]-1′,2′-dihydrospiro[cyclopentane-1,3′indole]] reads 2.01 to 8 µM; that for `O=S(=O)(c1cnn(C2CCOCC2)c1)N1CC2(CCCC2)c2ccccc21` [Compound I-19], at least 10 µM. As for `O=S(=O)(c1cncc(C(F)F)c1)N1CC2(CCCC2)c2ccccc21` [Compound I-20, 1′-{[S-(difluoromethyl)pyridin-3-yl]sulfonyl}-1′,2′-dihydrospiro[cyclopentane-1,3′-indole]], the EC50 is at least 10 µM. Then `O=S(=O)(c1cc(C2OCCO2)cs1)N1CC2(CCCC2)c2ccccc21` [Compound I-21, 1′-{[4-(1,3-dioxolan-2-yl)thiophen-2-yl]sulfonyl}-1′,2′-dihydrospiro[cyclopentane-1,3′-indole]], with at least 10 µM; and `O=S(=O)(c1ccc(C2OCCO2)cc1F)N1CC2(CCCC2)c2ccccc21` [Compound I-22, 1′-[4-(1,3-dioxolan-2-yl)-2-fluorobenzenesulfonyl]-1′,2′-dihydrospiro[cyclopentane-1,3′-indole]], with at least 10 µM. Then `O=S(=O)(c1ccc(OC(F)F)c(F)c1)N1CC2(CCCC2)c2ccccc21` [Compound I-23, 1′-[4-(difluoromethoxy)-3-fluorobenzenesulfonyl]-1′,2′-dihydrospiro[cyclopentane-1,3′-indole]], with at least 10 µM; and `O=S(=O)([C@H]1C[C@@H]1c1cccc(F)c1)N1CC2(CCCC2)c2ccccc21` [Compound I-24, 1′{[(1S,2R)-2-(3-fluorophenyl)cyclopropyl]sulfonyl}-1′,2′-dihydrospiro[cyclopentane-1,3′-indole]], with at least 10 µM; and `O=S(=O)(Cc1cccc(F)c1)N1CC2(CCCC2)c2ccccc21` [Compound I-25, 1′-[(3-fluorophenyl)methanesulfonyl]-1′,2′-dihydrospiro[cyclopentane-1,3′-indole]], with 2.01 to 8 µM. Regarding `O=S(=O)(c1cccc(C2CC2)c1)N1CC2(CCCC2)c2ccccc21` [Compound I-26, 1′-(3-cyclopropylbenzenesulfonyl)-1′,2′-dihydrospiro[cyclopentane-1,3′-indole]], the concentration giving a half-maximal response (EC50) was 2.01 to 8 µM.

For `O=S(=O)(c1cccc(C2OCCO2)c1)N1CC2(CCCC2)c2ccccc21` [Compound I-27, 1′-[3-(1,3-dioxolan-2-yl)benzenesulfonyl]-1′,2′-dihydrospiro[cyclopentane-1,3′-indole]], the concentration for a half-maximal effect (EC50) was 2.01 to 8 µM. The result for `O=S(=O)(c1ccc(C(F)F)cc1)N1CC2(CCCC2)c2ccccc21` [Compound I-28, 1′-[4-(difluoromethyl)benzenesulfonyl]-1′,2′-dihydrospiro[cyclopentane-1,3′-indole]] reads at least 10 µM; that for `O=S(=O)(c1ccc(C2CC2)cc1)N1CC2(CCCC2)c2ccccc21` [Compound I-29, 1′-(4-cyclopropylbenzenesulfonyl)-1′,2′-dihydrospiro[cyclopentane-1,3′-indole]], 2.01 to 8 µM; that for `O=S(=O)(Cc1ccc(F)cc1)N1CC2(CCCC2)c2ccccc21` [Compound I-30, 1′-[(4-fluorophenyl)methanesulfonyl]-1′,2′-dihydrospiro[cyclopentane-1,3′-indole]], at least 10 µM. In the case of `O=S(=O)(c1ccc(Br)cc1)N1CC2(CCCC2)c2ccccc21` [Compound I-32, 1′-(4-bromobenzenesulfonyl)-1′,2′-dihydrospiro[cyclopentane-1,3′-indole]], the EC50 is at least 10 µM. Then `O=S(=O)(c1ccc(C2CC2)s1)N1CC2(CCCC2)c2ccccc21` [Compound I-33, 1′-[(5-cyclopropylthiophen-2-yl)sulfonyl]-1′,2′-dihydrospiro[cyclopentane-1,3′-indole]], with at least 10 µM; and `O=S(=O)(Cc1ccc2c(c1)COCC2)N1CC2(CCCC2)c2ccccc21` [Compound I-34, 1′-[(3,4-dihydro-1H-2-benzopyran-7-yl)methanesulfonyl]-1′,2′-dihydrospiro[cyclopentane-1,3′-indole]], with 2.01 to 8 µM; and `O=S(=O)(c1ccc2c(c1)COC2)N1CC2(CCCC2)c2ccccc21` [Compound I-36, 1′-(1,3-dihydro-2-benzofuran-5-sulfonyl)-1′,2′-dihydrospiro[cyclopentane-1,3′-indole]], with at least 10 µM. Then `O=S(=O)(c1ccc2c(c1)COCC2)N1CC2(CCCC2)c2ccccc21` [Compound I-37], with 2.01 to 8 µM. Take `O=S(=O)(CC(F)c1ccccc1)N1CC2(CCCC2)c2ccccc21` (stereo not shown) [Compound I-38, 1′-(2-fluoro-2-phenylethanesulfonyl)-1′,2′-dihydrospiro[cyclopentane-1,3′-indole]]: the EC50 was at least 10 µM.
